Series [1] concerns nontumorigenic neonatal foreskin fibroblast (NFF) cell line. To be noted: NFF_NS1 screen at 5 µg/mL.
Series [2] relates to Trichomonas vaginalis G3 trophozoites. To be noted: HTS, parasite screen at 1 µg/mL; for T.vaginalis_%inb_Rep1: replicate 1; for T.vaginalis_Absorbance_Rep1: replicate 1, raw absorbance; for T.vaginalis_%inb_Rep2: replicate 2; for T.vaginalis_Absorbance_Rep2: replicate 2, raw absorbance.

Each structure is given as a SMILES string. Starred links: 1 amine or outer side, 2 acyl side, 3 side chain; linkers in the order of their positions; H or OH if unused. Positions of bridges follow the written chain, without caps; N, C: chain ends. Non-standard residues stand in square brackets, D forms with d. Residues, ends and D or L forms follow the SMILES beside them. *: point of attachment. hTyr(3S-OH,4S-OH,3'-OSO3H) = N[C@H](C(=O)O)[C@H](O)[C@@H](O)c1ccc(O)c(OS(=O)(=O)O)c1; Orn(4R-OH,5R-OH) = O=C([C@H](C[C@@H](O)[C@@H](O)N[*:3])N[*:1])[*:2]; Pro(3S-OH,4S-Me) = C[C@H]1CN[C@H](C(=O)O)[C@H]1O; Gln(3R-OH) = NC(=O)C[C@@H](O)[C@H](N)C(=O)O; Palmitoyl = CCCCCCCCCCCCCCCC(=O)*; Hyp = O=C(O)[C@@H]1C[C@@H](O)CN1

For `CC[C@H]1OC(=O)[C@H](C)[C@@H](O[C@H]2C[C@@](C)(O)[C@@H](O)[C@H](C)O2)[C@H](C)[C@@H](O[C@@H]2O[C@H](C)C[C@H](N(C)C)[C@H]2O)[C@](C)(O)C[C@@H](C)C(=O)[C@H](C)[C@@H](O)[C@]1(C)O` [Erythromycin C], in series [1], the NFF_Activity result was “I (otherwise these were reported as inactive (I))”. In series [2], this compound gave a T.vaginalis_%inb_Rep1 of 5.17%, a T.vaginalis_Absorbance_Rep1 of 0.805, a T.vaginalis_%inb_Rep2 of 6.87% and a T.vaginalis_Absorbance_Rep2 of 0.715.
Take `Cc1cc(=O)c(O)cc2c1C[C@@H]1CC(C)(C)/C=C/C[C@@]3(C)Oc4cc(O)c(=O)cc(C)c4C[C@@H]3C[C@@H](O)[C@]1(C)O2` [Eupenifeldin]: in series [1], the NFF_Activity entry is “A (active (A) compounds having >25% inhibitory activity)”. In series [2], this compound came in with a T.vaginalis_%inb_Rep1 of 14.05%, a T.vaginalis_Absorbance_Rep1 of 0.97, a T.vaginalis_%inb_Rep2 of 13.74% and a T.vaginalis_Absorbance_Rep2 of 0.81.
On to `C[C@@H](O)[C@@H]1NC(=O)[C@@H](N)C[C@@H](O)[C@@H](O)NC(=O)[C@@H]2[C@@H](O)[C@@H](C)CN2C(=O)[C@H]([C@H](O)CC(N)=O)NC(=O)[C@H]([C@H](O)[C@@H](O)c2ccc(O)c(OS(=O)(=O)O)c2)NC(=O)[C@@H]2C[C@@H](O)CN2C1=O` [FR 179642] (H-[Orn(4R-OH,5R-OH)]T[Hyp][hTyr(3S-OH,4S-OH,3'-OSO3H)][Gln(3R-OH)][Pro(3S-OH,4S-Me)]; lactam 1-C), for which the NFF_Activity result in series [1] is “I (otherwise these were reported as inactive (I))”. Besides, in series [2], the T.vaginalis_%inb_Rep1 worked out at 12.98%, the T.vaginalis_Absorbance_Rep1 was 0.95, the T.vaginalis_%inb_Rep2 turned out to be 14.17% and the T.vaginalis_Absorbance_Rep2 is 0.816.
As for `CCCCCCCCCCCCCCCC(=O)N[C@H]1C[C@@H](O)[C@@H](O)NC(=O)[C@@H]2[C@@H](O)[C@@H](C)CN2C(=O)[C@H]([C@H](O)CC(N)=O)NC(=O)[C@H]([C@H](O)[C@@H](O)c2ccc(O)c(OS(=O)(=O)O)c2)NC(=O)[C@@H]2C[C@@H](O)CN2C(=O)[C@H]([C@@H](C)O)NC1=O` [FR 901379] (Palmitoyl-[Orn(4R-OH,5R-OH)]T[Hyp][hTyr(3S-OH,4S-OH,3'-OSO3H)][Gln(3R-OH)][Pro(3S-OH,4S-Me)]; lactam 1-C), in series [1], the NFF_Activity result was “I (otherwise these were reported as inactive (I))”. In series [2], this compound had a T.vaginalis_%inb_Rep1 of 12.55%, a T.vaginalis_Absorbance_Rep1 of 0.942, a T.vaginalis_%inb_Rep2 of 13.45% and a T.vaginalis_Absorbance_Rep2 of 0.806.
Regarding `COc1cc(/C=C/C(=O)O)ccc1O` [Ferulic acid], in series [1], the NFF_Activity entry was “I (otherwise these were reported as inactive (I))”. In series [2], this compound came in with a T.vaginalis_%inb_Rep1 of 13.69%, a T.vaginalis_Absorbance_Rep1 of 0.972, a T.vaginalis_%inb_Rep2 of 12.64% and a T.vaginalis_Absorbance_Rep2 of 0.832.
In the same order, the values of `CCCCCC[C@H]1C(=O)O[C@H](C)[C@@H](O)/C=C/C=C/C=C/C=C/C=C(\C)[C@@H](O)C[C@H](O)C[C@H](O)C[C@H](O)C[C@H](O)C[C@H](O)C[C@@H]1O` [Filipin II] are “I (otherwise these were reported as inactive (I))”, 13.79%, 0.965, 25.09% and 0.967.
`CS(=O)(=O)c1ccc([C@@H](O)[C@H](N)CF)cc1.Cl` [Florfenicol amine HCl]: the NFF_Activity result in series [1] was “I (otherwise these were reported as inactive (I))”. In addition, in series [2], the T.vaginalis_%inb_Rep1 came to 15.67%, the T.vaginalis_Absorbance_Rep1 worked out at 1, the T.vaginalis_%inb_Rep2 is 15.11% and the T.vaginalis_Absorbance_Rep2 stood at 0.829.

Values taken from PMC7897990, “TriTOX: A novel Trichomonas vaginalis assay platform for high-throughput screening of compound libraries” (International Journal for Parasitology: Drugs and Drug …, 2021).
